Tests used:
Assay type in all cases: physicochemical
[1] = Dissolution rate in simulated nasal fluid (UV-fiber optic dissolution apparatus); conditions: 5 mg in 5 mL simulated nasal fluid, 37° C., 150 RPM
Protocol: The dissolution rate was determined using a method comprising the use of a UV-fiber optic-based dissolution apparatus (one such suitable device is the Rainbow® Dynamic Dissolution Monitor by Pion Inc) and simulated nasal fluid. The simulated nasal fluid comprises 7.45 g/L NaCl, 1.29 g/L KCl, 0.32 g/L CaCl2×2H2O and deionised water.
The dissolution apparatus was set up with a 2 mm probe to measure the dissolution rate. 5 mg of the salt form was transferred into 5 mL of simulated nasal fluid, heated to a constant temperature of 37° C. and stirred at 150 RPM using a crossed stirrer bar. Measurements were taken at 3 s intervals for 130 intervals followed by 60 measurements taken at 10 s intervals for a total time of 16 minutes and 30 s. Detection of dissolution is by UV absorbance.

[2] = Polymorphism screen of benzoate salt (thermal cycling, evaporations, antisolvent additions, cooling), XRPD
Protocol: To render the amorphous and thus remove seeds of the supplied pattern 1 the supplied material was lyophilised in an attempt to render it amorphous. To 2.396 g of the supplied benzoate salt lot 800674000 dioxane (55 ml) and water (5 ml) was added. The mixture was agitated gently and warmed to aid dissolution.
Twenty five of the lyophilised samples were treated with solvent and thermally cycled between ambient and 40° C. with four hours spent under each condition. After three days and solids were isolated by centrifuge filtration and analysed by XRPD.
Twelve samples of the lyophilised material were treated with a minimal volume (ca 0.5 ml) of warm solvent, syringe filtered through a 0.22 micrometre filter and added to a clean HPLC vial and allowed to evaporate at RT. The solvents used and XRPD results following evaporation are detailed in the Table below:
For antisolvent additions thirteen samples of the lyophilised material were dissolved in a small amount of hot solvent (^~0.5 ml). […] A large excess of antisolvent was then added, the vials sealed. After storage at RT overnight, and samples where no solid had been produced were first cooled to 4° C. for ^~24 hrs, and again if no solid was produced, they were cooled to −18° C. Any solids were isolated by centrifuge filtration and analysed by XRPD.
For the cooling experiments twelve samples of the lyophilised material were dissolved in a small amount of hot solvent (^~0.5 ml) and syringe filtered through a 0.22 μm filter into a clean HPLC vial. Samples were allowed to cool to RT, and if no solid was produced to 4° C. and then to −18° C. Solids were isolated by centrifuge filtration and analysed by XRPD.

[3] = Solubility assessments in four different media; conditions: 50 mg per vial; for Observation: 0.5 ml media at 37° C.
Protocol: Solubility assessments of 5-MeO-DMT oxalate, hydrobromide fumarate and benzoate were performed in four different media: […]

## COc1ccc2[nH]cc(CCN(C)C)c2c1.O=C(O)c1ccccc1 [benzoate salt, 5-MeO-DMT benzoate]
[1]
  dissolution rate: almost instantaneous
[2]; antisolvent addition, solvent DMF, anti solvent PhMe, Cooled −18 C., DJP2202-012-07
  XRPD Results: No solid
[2]; antisolvent addition, solvent EtOH, anti solvent Heptane, Some solid at RT, DJP2202-012-04
  XRPD Results: Pattern 1
[2]; antisolvent addition, solvent EtOH, anti solvent TBME, Cooled −18 C., DJP2202-012-03
  XRPD Results: No solid
[2]; antisolvent addition, solvent IPAC, anti solvent TBME, Cooled −18 C., DJP2202-012-08
  XRPD Results: No solid
[2]; antisolvent addition, solvent MEK, anti solvent Heptane, Some solid at RT, DJP2202-012-10
  XRPD Results: Pattern 2
[2]; antisolvent addition, solvent MEK, anti solvent TBME, Cooled −18 C., DJP2202-012-09
  XRPD Results: No solid
[2]; antisolvent addition, solvent MeCN, anti solvent PhMe, Some solid at RT, DJP2202-012-12
  XRPD Results: Pattern 4
[2]; antisolvent addition, solvent MeCN, anti solvent TBME, Cooled −18 C., DJP2202-012-11
  XRPD Results: No solid
[2]; antisolvent addition, solvent MeOH, anti solvent TBME, Cooled −18 C., DJP2202-012-02
  XRPD Results: No solid
[2]; antisolvent addition, solvent MeOH/water Aw 0.2, anti solvent MeOH, Cooled −18 C., DJP2202-012-01
  XRPD Results: No solid
[2]; antisolvent addition, solvent THF, anti solvent TBME, Cooled −18 C., DJP2202-012-05
  XRPD Results: No solid
[2]; antisolvent addition, solvent dioxane, anti solvent TBME, Cooled −18 C., DJP2202-012-06
  XRPD Results: No solid
[2]; cooling experiment, EtOH, Solid at RT, DJP2202-013-05
  XRPD Results: Pattern 4
[2]; cooling experiment, IPA, Solid at RT, DJP2202-013-06
  XRPD Results: Pattern 4
[2]; cooling experiment, IPAC, Solid at RT, DJP2202-013-10
  XRPD Results: Pattern 4
[2]; cooling experiment, MEK, Solid at RT, DJP2202-013-11
  XRPD Results: Pattern 2
[2]; cooling experiment, MeCN, Solid at RT, DJP2202-013-12
  XRPD Results: Pattern 4
[2]; cooling experiment, MeOH/water Aw 0.2, Cooled −18 C., DJP2202-013-01
  XRPD Results: Pattern 4
[2]; cooling experiment, MeOH/water Aw 0.6, Cooled −18 C., DJP2202-013-02
  XRPD Results: no solids
[2]; cooling experiment, MeOH, Cooled −18 C., DJP2202-013-04
  XRPD Results: no solids
[2]; cooling experiment, THF, Solid at RT, DJP2202-013-07
  XRPD Results: Pattern 4
[2]; cooling experiment, Water, Cooled −18 C., DJP2202-013-03
  XRPD Results: Pattern 4
[2]; cooling experiment, chlorobenzene, Solid at RT, DJP2202-013-09
  XRPD Results: mix #4 #2
[2]; cooling experiment, dioxane, Solid at RT, DJP2202-013-08
  XRPD Results: Pattern 3
[2]; evaporation at RT of lyophilised material from 1-PrOH, DJP2202-010-02
  XRPD Result: Oil
[2]; evaporation at RT of lyophilised material from EtOH, DJP2202-010-05
  XRPD Result: Oil
[2]; evaporation at RT of lyophilised material from IPA, DJP2202-010-06
  XRPD Result: Pattern 4
[2]; evaporation at RT of lyophilised material from IPAC, DJP2202-010-10
  XRPD Result: Pattern 2
[2]; evaporation at RT of lyophilised material from MEK, DJP2202-010-11
  XRPD Result: Pattern 4
[2]; evaporation at RT of lyophilised material from MIBK, DJP2202-010-04
  XRPD Result: Oil
[2]; evaporation at RT of lyophilised material from MeCN, DJP2202-010-12
  XRPD Result: Pattern 4
[2]; evaporation at RT of lyophilised material from THF, DJP2202-010-07
  XRPD Result: Pattern 4
[2]; evaporation at RT of lyophilised material from chlorobenzene, DJP2202-010-09
  XRPD Result: Pattern 4
[2]; evaporation at RT of lyophilised material from dioxane, DJP2202-010-08
  XRPD Result: Pattern 4
[2]; thermal cycle ambient/40° C., 3 days, 1,4-Dioxane 200 μl, isolated after thermal cycle, DJP2202-006-01
  XRPD Result: Pattern 3
[2]; thermal cycle ambient/40° C., 3 days, 1-Propanol 200 μl, isolated after thermal cycle, DJP2202-006-02
  XRPD Result: Pattern 4
[2]; thermal cycle ambient/40° C., 3 days, 2-Butanol 200 μl, isolated after thermal cycle, DJP2202-006-03
  XRPD Result: Pattern 4
[2]; thermal cycle ambient/40° C., 3 days, 2-Me-1-PrOH 200 μl, isolated after thermal cycle, DJP2202-006-21
  XRPD Result: Pattern 4
[2]; thermal cycle ambient/40° C., 3 days, 2-Methyltetrahydrofuran 200 μl, isolated after thermal cycle, DJP2202-006-05
  XRPD Result: Pattern 4
[2]; thermal cycle ambient/40° C., 3 days, 2-Propanol 200 μl, isolated after thermal cycle, DJP2202-006-06
  XRPD Result: Pattern 4
[2]; thermal cycle ambient/40° C., 3 days, Acetone 200 μl, isolated after thermal cycle, DJP2202-006-07
  XRPD Result: Pattern 4
[2]; thermal cycle ambient/40° C., 3 days, Acetonitrile 200 μl, isolated after thermal cycle, DJP2202-006-08
  XRPD Result: Pattern 4
[2]; thermal cycle ambient/40° C., 3 days, Anisole 200 μl, isolated after thermal cycle, DJP2202-006-09
  XRPD Result: Pattern 4
[2]; thermal cycle ambient/40° C., 3 days, Chlorobenzene 200 μl, isolated after thermal cycle, DJP2202-006-10
  XRPD Result: Pattern 4 +
[2]; thermal cycle ambient/40° C., 3 days, Ethanol 150 μl, isolated after thermal cycle, DJP2202-006-11
  XRPD Result: Pattern 4
[2]; thermal cycle ambient/40° C., 3 days, Ethyl acetate 200 μl, isolated after thermal cycle, DJP2202-006-12
  XRPD Result: Pattern 4
[2]; thermal cycle ambient/40° C., 3 days, Formamide 150 μl, isolated after thermal cycle, DJP2202-006-17
  XRPD Result: Pattern 4
[2]; thermal cycle ambient/40° C., 3 days, Isopropyl acetate 200 μl, isolated after thermal cycle, DJP2202-006-13
  XRPD Result: Pattern 4
[2]; thermal cycle ambient/40° C., 3 days, MeOH/water 360/640 Calc Aw 0.821, 200 μl, clear solution, evaporated to solid, DJP2202-006-25
  XRPD Result: Pattern 1
[2]; thermal cycle ambient/40° C., 3 days, MeOH/water 693/307 Calc Aw 0.599, 200 μl, clear solution, evaporated to solid, DJP2202-006-24
  XRPD Result: Pattern 1
[2]; thermal cycle ambient/40° C., 3 days, Methanol 200 μl, clear solution, evaporated to solid, DJP2202-006-14
  XRPD Result: Pattern 1
[2]; thermal cycle ambient/40° C., 3 days, Methylethyl ketone 200 μl, isolated after thermal cycle, DJP2202-006-16
  XRPD Result: Pattern 4
[2]; thermal cycle ambient/40° C., 3 days, Propyl acetate 200 μl, isolated after thermal cycle, DJP2202-006-15
  XRPD Result: Pattern 4
[2]; thermal cycle ambient/40° C., 3 days, Tetrahydrofuran 200 μl, isolated after thermal cycle, DJP2202-006-22
  XRPD Result: Pattern 4
[2]; thermal cycle ambient/40° C., 3 days, iso-Propyl acetate 200 μl, isolated after thermal cycle, DJP2202-006-20
  XRPD Result: Pattern 4
[3]; SNF
  pH after addition of 0.5 ml media at 37° C.: 6.77
  Observation: Clear solution
[3]; pH 1.2 buffer
  pH after addition of 0.5 ml media at 37° C.: 5.28
  Observation: Clear solution
[3]; pH 4.5 buffer
  pH after addition of 0.5 ml media at 37° C.: 5.22
  Observation: Clear solution
[3]; pH 6.8 buffer
  pH after addition of 0.5 ml media at 37° C.: 6.82
  Observation: Clear solution
